Test results reported in patent publication US8299048B2, “Hexahydrocyclopentyl[f]indazole sulfonamides and derivatives thereof as selective glucocorticoid receptor modulators” (Merck Sharp & Dohme Corp., priority 2008, dated 2012).

Biological target: T1, glucocorticoid receptor (Homo sapiens, UniProt P04150)
T1 construct: endogenous in cells
T1 sequence (P04150 1-777): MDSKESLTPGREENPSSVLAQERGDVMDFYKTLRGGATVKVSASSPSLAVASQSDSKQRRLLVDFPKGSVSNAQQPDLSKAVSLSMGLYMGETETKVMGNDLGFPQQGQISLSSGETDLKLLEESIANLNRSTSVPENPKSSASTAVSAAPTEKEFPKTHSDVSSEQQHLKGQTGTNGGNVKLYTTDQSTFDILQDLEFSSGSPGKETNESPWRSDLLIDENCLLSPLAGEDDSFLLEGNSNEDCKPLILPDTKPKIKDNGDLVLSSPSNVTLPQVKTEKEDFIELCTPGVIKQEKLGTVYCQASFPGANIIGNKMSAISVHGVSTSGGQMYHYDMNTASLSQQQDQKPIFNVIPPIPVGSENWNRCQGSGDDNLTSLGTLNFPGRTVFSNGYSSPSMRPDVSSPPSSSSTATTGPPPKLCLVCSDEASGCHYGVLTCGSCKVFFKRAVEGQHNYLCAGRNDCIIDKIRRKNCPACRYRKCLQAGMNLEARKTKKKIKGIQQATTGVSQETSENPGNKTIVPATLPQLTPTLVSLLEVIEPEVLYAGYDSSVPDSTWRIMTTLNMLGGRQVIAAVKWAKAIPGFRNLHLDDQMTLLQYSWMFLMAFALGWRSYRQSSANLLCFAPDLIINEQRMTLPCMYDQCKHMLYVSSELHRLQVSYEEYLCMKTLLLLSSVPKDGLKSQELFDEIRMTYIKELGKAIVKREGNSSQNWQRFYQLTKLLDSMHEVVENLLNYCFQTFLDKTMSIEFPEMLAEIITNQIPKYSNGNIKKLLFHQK
Assay: Ligand binding assay (GR BIND)
Method in brief: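 Cytosol from freeze–thawed cells in TEGM (pH 7.2, 10 mM molybdate) was incubated overnight at 4 °C with compound and [3H]-dexamethasone trace (added as 6 nM solution), 2% EtOH final. Bound ligand was captured on hydroxylapatite, filtered, washed and scintillation counted. Values were calculated with dexamethasone as reference.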

| SMILES | Ki [nM] |
| --- | --- |
| C[C@]12Cc3cnn(-c4ccc(F)cc4)c3C=C1CC[C@@H]2CN(CCc1ccccn1)S(=O)(=O)Cc1cccnc1 [Example 1, N-{[(4αR,5S)-1-(4-Fluorophenyl)-4α-methyl-1,4,4α,5,6,7-hexahydrocyclopenta[f]indazol-5-yl]methyl}-1-pyridin-3-yl-N-(2-pyridin-2-ylethyl)methanesulfonamide] | 1.8 |
| C[C@]12Cc3cnn(-c4ccc(F)cc4)c3C=C1CC[C@@H]2CN(CC1CC1)S(=O)(=O)c1ccccc1F [Example 2, N-(cyclopropylmethyl)-2-fluoro-N-{[(4αR,5S)-1-(4-fluorophenyl)-4α-methyl-1,4,4α,5,6,7-hexahydrocyclopenta[f]indazol-5-yl]methyl}benzenesulfonamide] | 0.6 |
| C[C@]12Cc3cnn(-c4ccc(F)cc4)c3C=C1CC[C@@H]2CN(CC1CC1)S(=O)(=O)c1ccccc1C(F)(F)F [Example 4, N-(cyclopropylmethyl)-N-{[(4αR,5S)-1-(4-fluorophenyl)-4α-methyl-1,4,4α,5,6,7-hexahydrocyclopenta[f]indazol-5-yl]methyl}-2-(trifluoromethyl)benzenesulfonamide] | 2.2 |
| Cc1ccc(S(=O)(=O)N(CCO)C[C@H]2CCC3=Cc4c(cnn4-c4ccc(F)cc4)C[C@@]32C)s1 [Example 64, N-{[(4αR,5S)-1-(4-fluorophenyl)-4α-methyl-1,4,4α,5,6,7-hexahydrocyclopenta[f]indazol-5-yl]methyl}-N-(2-hydroxyethyl)-5-methylthiophene-2-sulfonamide] | 3 |
| Cn1cc(S(=O)(=O)N(CCO)C[C@H]2CCC3=Cc4c(cnn4-c4ccc(F)cc4)C[C@@]32C)c(C(F)(F)F)n1 [Example 65, N-{[(4αR,5S)-1-(4-fluorophenyl)-4α-methyl-1,4,4α,5,6,7-hexahydrocyclopenta[f]indazol-5-yl]methyl}-N-(2-hydroxyethyl)-1-methyl-3-(trifluoromethyl)-1H-pyrazole-4-sulfonamide] | 2.7 |
| Cc1cc(S(=O)(=O)N(CCO)C[C@H]2CCC3=Cc4c(cnn4-c4ccc(F)cc4)C[C@@]32C)c(C)o1 [Example 66, N-{[(4αR,5S)-1-(4-fluorophenyl)-4α-methyl-1,4,4α,5,6,7-hexahydrocyclopenta[f]indazol-5-yl]methyl}-N-(2-hydroxyethyl)-2,5-dimethylfuran-3-sulfonamide] | 7.9 |

The remaining compounds from weak to strong by Ki, led by results:

| Ki [nM] | SMILES |
| --- | --- |
| 13.4 | Cn1nc(C(F)(F)F)cc1-c1ccc(S(=O)(=O)N(CCO)C[C@H]2CCC3=Cc4c(cnn4-c4ccc(F)cc4)C[C@@]32C)s1 [Example 67, N-{[(4αR,5S)-1-(4-fluorophenyl)-4α-methyl-1,4,4α,5,6,7-hexahydrocyclopenta[f]indazol-5-yl]methyl}-N-(2-hydroxyethyl)-5-[1-methyl-3-(trifluoromethyl)-1H-pyrazole-5-yl]thiophene-2-sulfonamide] |
| 9.1 | C[C@]12Cc3cnn(-c4ccc(F)cc4)c3C=C1CC[C@@H]2CN(CCO)S(=O)(=O)Cc1cccc(C(F)(F)F)c1 [Example 63, N-{[(4αR,5S)-1-(4-fluorophenyl)-4α-methyl-1,4,4α,5,6,7-hexahydrocyclopenta[f]indazol-5-yl]methyl}-N-(2-hydroxyethyl)-1-[3-(trifluoromethyl)phenyl]methanesulfonamide] |
| 3.6 | C[C@]12Cc3cnn(-c4ccc(F)cc4)c3C=C1CC[C@@H]2CN(CCO)S(=O)(=O)c1cccc(C#N)c1 [Example 68, 3-cyano-N-{[(4αR,5S)-1-(4-fluorophenyl)-4α-methyl-1,4,4α,5,6,7-hexahydrocyclopenta[f]indazol-5-yl]methyl}-N-(2-hydroxyethyl)benezenesulfonamide] |
| 0.8 | C=CCN(C[C@H]1CCC2=Cc3c(cnn3-c3ccc(F)cc3)C[C@@]21C)S(=O)(=O)c1ccccc1F [Example 3, N-allyl-2-fluoro-N-{[(4αR,5S)-1-(4-fluorophenyl)-4α-methyl-1,4,4α,5,6,7-hexahydrocyclopenta[f]indazol-5-yl]methyl}benzenesulfonamide] |
